Reference: article PMC12102759 (Protein Science : A Publication of the Protein Society, 2025)

tested on: G3BP1 NFT2; type: binding, human; conditions: library DMS-BM; bait G3BP1 NFT2; prey CAPRIN1; AQMQGPYNFIQDSM(averaged): mean of the two overlapping peptides over the shared positions

Point of comparison: “AQMQGPYNFIQDSM(averaged) Q11G (AQMQGPYNFIGDSM)”, “DMS position-specific score (PSSM value) per amino-acid substitution, averaged” value 0.1489. Against it:
- AQMQGPYNFIQDSM(averaged) D12K (AQMQGPYNFIQKSM) — lower, 0.003093
- AQMQGPYNFIQDSM(averaged) Y7Q (AQMQGPQNFIQDSM) — lower, 0.001996
- AQMQGPYNFIQDSM(averaged) P6T (AQMQGTYNFIQDSM) — higher, 0.1796
- AQMQGPYNFIQDSM(averaged) S13T (AQMQGPYNFIQDTM) — lower, 0.05884
- AQMQGPYNFIQDSM(averaged) Q11N (AQMQGPYNFINDSM) — lower, 0.05691
- AQMQGPYNFIQDSM(averaged) S13D (AQMQGPYNFIQDDM) — lower, 0.02096
- AQMQGPYNFIQDSM(averaged) D12P (AQMQGPYNFIQPSM) — higher, 0.216
- AQMQGPYNFIQDSM(averaged) G5Q (AQMQQPYNFIQDSM) — lower, 0.004656
- AQMQGPYNFIQDSM(averaged) Q4N (AQMNGPYNFIQDSM) — lower, 0.005313
- AQMQGPYNFIQDSM(averaged) M3T (AQTQGPYNFIQDSM) — lower, 0.05572
- AQMQGPYNFIQDSM(averaged) G5V (AQMQVPYNFIQDSM) — lower, 0.008337
- AQMQGPYNFIQDSM(averaged) A1I (IQMQGPYNFIQDSM) — lower, 0.00266
- AQMQGPYNFIQDSM(averaged) D12F (AQMQGPYNFIQFSM) — lower, 0.004771
- AQMQGPYNFIQDSM(averaged) M14W (AQMQGPYNFIQDSW) — lower, 0.06336
- AQMQGPYNFIQDSM(averaged) Q11Q — higher, 0.3738
- AQMQGPYNFIQDSM(averaged) P6S (AQMQGSYNFIQDSM) — lower, 0.00881
- AQMQGPYNFIQDSM(averaged) D12D — higher, 0.268
- AQMQGPYNFIQDSM(averaged) M14N (AQMQGPYNFIQDSN) — lower, 0.007055
- AQMQGPYNFIQDSM(averaged) M14V (AQMQGPYNFIQDSV) — lower, 0.02285
- AQMQGPYNFIQDSM(averaged) Q2W (AWMQGPYNFIQDSM) — lower, 0.05769
- AQMQGPYNFIQDSM(averaged) I10Q (AQMQGPYNFQQDSM) — lower, 0.01591
- AQMQGPYNFIQDSM(averaged) G5S (AQMQSPYNFIQDSM) — lower, 0.1168
- AQMQGPYNFIQDSM(averaged) A1M (MQMQGPYNFIQDSM) — lower, 0.03265
- AQMQGPYNFIQDSM(averaged) M3I (AQIQGPYNFIQDSM) — lower, 0.03359
- AQMQGPYNFIQDSM(averaged) Q4R (AQMRGPYNFIQDSM) — lower, 0.00079
- AQMQGPYNFIQDSM(averaged) I10M (AQMQGPYNFMQDSM) — lower, 0.03721
- AQMQGPYNFIQDSM(averaged) P6V (AQMQGVYNFIQDSM) — lower, 0.006564
- AQMQGPYNFIQDSM(averaged) Q11F (AQMQGPYNFIFDSM) — lower, 0.006502
- AQMQGPYNFIQDSM(averaged) N8A (AQMQGPYAFIQDSM) — lower, 0.06427
- AQMQGPYNFIQDSM(averaged) A1Y (YQMQGPYNFIQDSM) — lower, 0.1391
- AQMQGPYNFIQDSM(averaged) D12W (AQMQGPYNFIQWSM) — lower, 0
- AQMQGPYNFIQDSM(averaged) Y7H (AQMQGPHNFIQDSM) — lower, 0.0003057
- AQMQGPYNFIQDSM(averaged) P6D (AQMQGDYNFIQDSM) — lower, 0.01341
- AQMQGPYNFIQDSM(averaged) F9K (AQMQGPYNKIQDSM) — lower, 0
- AQMQGPYNFIQDSM(averaged) A1S (SQMQGPYNFIQDSM) — lower, 0.001176
- AQMQGPYNFIQDSM(averaged) Y7R (AQMQGPRNFIQDSM) — lower, 0
- AQMQGPYNFIQDSM(averaged) A1K (KQMQGPYNFIQDSM) — lower, 0.0005059
- AQMQGPYNFIQDSM(averaged) M14P (AQMQGPYNFIQDSP) — lower, 0
- AQMQGPYNFIQDSM(averaged) P6Y (AQMQGYYNFIQDSM) — lower, 0.1155
- AQMQGPYNFIQDSM(averaged) F9Y (AQMQGPYNYIQDSM) — lower, 0.002988
- AQMQGPYNFIQDSM(averaged) Q11P (AQMQGPYNFIPDSM) — lower, 0
- AQMQGPYNFIQDSM(averaged) Y7L (AQMQGPLNFIQDSM) — lower, 0.1143
- AQMQGPYNFIQDSM(averaged) Q2F (AFMQGPYNFIQDSM) — higher, 0.3525
- AQMQGPYNFIQDSM(averaged) A1P (PQMQGPYNFIQDSM) — lower, 0.07411
- AQMQGPYNFIQDSM(averaged) Q4E (AQMEGPYNFIQDSM) — lower, 0.0003947
- AQMQGPYNFIQDSM(averaged) F9G (AQMQGPYNGIQDSM) — lower, 0.0001993
- AQMQGPYNFIQDSM(averaged) D12I (AQMQGPYNFIQISM) — lower, 0.0003022
- AQMQGPYNFIQDSM(averaged) M3Q (AQQQGPYNFIQDSM) — lower, 0.0638
- AQMQGPYNFIQDSM(averaged) M14L (AQMQGPYNFIQDSL) — lower, 0.006578
- AQMQGPYNFIQDSM(averaged) I10V (AQMQGPYNFVQDSM) — lower, 0.004849
- AQMQGPYNFIQDSM(averaged) G5M (AQMQMPYNFIQDSM) — lower, 0.1116
- AQMQGPYNFIQDSM(averaged) M3P (AQPQGPYNFIQDSM) — lower, 0.0009459
- AQMQGPYNFIQDSM(averaged) Q4W (AQMWGPYNFIQDSM) — lower, 0.01813
- AQMQGPYNFIQDSM(averaged) P6I (AQMQGIYNFIQDSM) — lower, 0.007006
- AQMQGPYNFIQDSM(averaged) S13M (AQMQGPYNFIQDMM) — lower, 0
- AQMQGPYNFIQDSM(averaged) D12E (AQMQGPYNFIQESM) — lower, 0.04092
- AQMQGPYNFIQDSM(averaged) M3L (AQLQGPYNFIQDSM) — lower, 0.03704
- AQMQGPYNFIQDSM(averaged) M14D (AQMQGPYNFIQDSD) — lower, 0.036
- AQMQGPYNFIQDSM(averaged) F9N (AQMQGPYNNIQDSM) — lower, 0
- AQMQGPYNFIQDSM(averaged) P6M (AQMQGMYNFIQDSM) — lower, 0.05352
- AQMQGPYNFIQDSM(averaged) M14R (AQMQGPYNFIQDSR) — lower, 0.003652
- AQMQGPYNFIQDSM(averaged) N8R (AQMQGPYRFIQDSM) — lower, 0.00733
- AQMQGPYNFIQDSM(averaged) Q4G (AQMGGPYNFIQDSM) — lower, 0.08843
- AQMQGPYNFIQDSM(averaged) N8V (AQMQGPYVFIQDSM) — higher, 0.1991
- AQMQGPYNFIQDSM(averaged) M14S (AQMQGPYNFIQDSS) — lower, 0.001956
- AQMQGPYNFIQDSM(averaged) Y7Y — higher, 0.5479
- AQMQGPYNFIQDSM(averaged) Q2V (AVMQGPYNFIQDSM) — lower, 0.04598
- AQMQGPYNFIQDSM(averaged) S13F (AQMQGPYNFIQDFM) — lower, 0.05713
- AQMQGPYNFIQDSM(averaged) A1W (WQMQGPYNFIQDSM) — lower, 0.05589
- AQMQGPYNFIQDSM(averaged) M3R (AQRQGPYNFIQDSM) — lower, 0.003692
- AQMQGPYNFIQDSM(averaged) Q11R (AQMQGPYNFIRDSM) — lower, 0.004534
- AQMQGPYNFIQDSM(averaged) P6H (AQMQGHYNFIQDSM) — lower, 0.008056
- AQMQGPYNFIQDSM(averaged) M3H (AQHQGPYNFIQDSM) — lower, 0.02176
- AQMQGPYNFIQDSM(averaged) Q4A (AQMAGPYNFIQDSM) — lower, 0.0506
- AQMQGPYNFIQDSM(averaged) Y7V (AQMQGPVNFIQDSM) — lower, 0.02381
- AQMQGPYNFIQDSM(averaged) G5H (AQMQHPYNFIQDSM) — lower, 0.006873
- AQMQGPYNFIQDSM(averaged) G5Y (AQMQYPYNFIQDSM) — lower, 0.006993
- AQMQGPYNFIQDSM(averaged) Q4K (AQMKGPYNFIQDSM) — lower, 4.484e-5
